Drawing on patent US9969726B2, “Metabotropic glutamate receptor negative allosteric modulators (NAMS) and uses thereof” (Sanford-Burnham Medical Research Institute, priority 2014, dated 2018), this text covers EC50 for 22 compounds.

Like-named read-outs stand apart in the source and are kept apart here.

One assay concerns the target rat mGlu2 receptor (Rattus norvegicus (Rat), UniProt P31421). Nature of the assay: mGlu2 in vitro GIRK thallium flux assay. The class given is cell-based. Particulars: NAM, EC80 glutamate, HEK-293 GIRK cells. How it is done: (§1) All cell culture reagents were purchased from Invitrogen Corp. (Carlsbad, Calif.) unless otherwise noted. Compound activity at the group II (mGlu2 and mGlu3) mGlus was assessed using thallium flux through GIRK channels. Briefly, cells were plated into 384-well, black-walled, clear-bottomed poly-D-lysine-coated plates at a density of 15,000 cells/20 μL/well in DMEM containing 10% dialyzed FBS, 20 mM HEPES, and 100 units/mL penicillin/streptomycin (assay media). Plated cells were incubated overnight at 37° C. in the presence of 5% CO2. […] Cells were incubated for 1 h at room temperature, and the dye exchanged to assay buffer using an ELX405, leaving 20 μL/well. Test compounds were diluted to 2 times their final desired concentration in assay buffer (0.3% DMSO final concentration). […] Cell plates and compound plates were loaded onto a kinetic imaging plate reader (FDSS 6000 or 7000; Hamamatsu Corporation, Bridgewater, N.J.). Appropriate baseline readings were taken (10 images at 1 Hz; excitation, 470±20 nm; emission, 540±30 nm) and test compounds were added in a 20 μL volume and incubated for either 2.5 min or 60 min as indicated before the addition of 10 μL of thallium buffer with or without agonist. After the addition of agonist, data were collected for approximately an additional 2.5 min. Data were analyzed using Excel (Microsoft Corp, Redmond, Wash.). The slope of the fluorescence increase beginning 5 s after thallium/agonist addition and ending 15 s after thallium/agonist addition was calculated, corrected to vehicle and maximal agonist control slope values, and plotted in using either XLfit (ID Business Solutions Ltd) or Prism software (GraphPad Software, San Diego, Calif.) to generate concentration-response curves. Potencies were calculated from fits using a four-point parameter logistic equation. For concentration-response curve experiments, compounds were serially diluted 1:3 into 10 point concentration response curves and were transferred to daughter plates using an Echo acoustic plate reformatter (Labcyte, Sunnyvale, Calif.). Test compounds were applied and followed by EC80 concentrations of glutamate.

In a further assay the target is rat mGlu3 receptor (Rattus norvegicus (Rat), UniProt P31422). Nature of the assay: mGlu3 in vitro GIRK thallium flux assay. The class given is cell-based. Particulars: NAM; 2.5 min compound incubation; EC80 glutamate; HEK-293 GIRK cells. How it is done:
as §1

The mark [1] stands for this setting: 2.5 min compound incubation, read-out: mGlu2 EC50 (μM) (2.5 min).
Where [2] appears, read: mGlu2 EC50 (μM) (60 min), 60 min compound incubation.
[3] abbreviates: read-out: mGlu2 EC50 (μM) (60 min), 60 min compound incubation.

Chain of rat mGlu3 receptor (P31422 23-879): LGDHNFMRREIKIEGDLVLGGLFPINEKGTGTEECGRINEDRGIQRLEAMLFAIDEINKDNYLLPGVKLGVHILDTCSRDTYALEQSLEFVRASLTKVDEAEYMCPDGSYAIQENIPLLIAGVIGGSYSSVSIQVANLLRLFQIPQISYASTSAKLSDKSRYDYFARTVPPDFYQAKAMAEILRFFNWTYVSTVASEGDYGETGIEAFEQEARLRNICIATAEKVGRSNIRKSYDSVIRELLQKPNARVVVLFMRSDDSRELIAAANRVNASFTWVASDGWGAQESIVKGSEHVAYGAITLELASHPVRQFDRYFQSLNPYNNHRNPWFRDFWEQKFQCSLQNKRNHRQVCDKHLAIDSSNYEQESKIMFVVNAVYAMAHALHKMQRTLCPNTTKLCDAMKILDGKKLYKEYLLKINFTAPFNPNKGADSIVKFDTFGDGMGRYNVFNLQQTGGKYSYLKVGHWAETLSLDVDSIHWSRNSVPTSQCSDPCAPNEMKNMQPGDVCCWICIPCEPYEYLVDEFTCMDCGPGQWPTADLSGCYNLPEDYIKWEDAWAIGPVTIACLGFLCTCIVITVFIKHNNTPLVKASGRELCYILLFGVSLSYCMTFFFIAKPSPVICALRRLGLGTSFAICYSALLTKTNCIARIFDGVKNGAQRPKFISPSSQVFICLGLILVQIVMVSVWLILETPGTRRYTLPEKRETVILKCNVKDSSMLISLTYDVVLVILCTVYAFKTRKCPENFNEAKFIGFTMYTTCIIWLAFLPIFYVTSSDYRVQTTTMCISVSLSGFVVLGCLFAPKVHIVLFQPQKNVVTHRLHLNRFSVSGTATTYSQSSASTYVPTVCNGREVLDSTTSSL
Chain of rat mGlu2 receptor (P31421 19-872): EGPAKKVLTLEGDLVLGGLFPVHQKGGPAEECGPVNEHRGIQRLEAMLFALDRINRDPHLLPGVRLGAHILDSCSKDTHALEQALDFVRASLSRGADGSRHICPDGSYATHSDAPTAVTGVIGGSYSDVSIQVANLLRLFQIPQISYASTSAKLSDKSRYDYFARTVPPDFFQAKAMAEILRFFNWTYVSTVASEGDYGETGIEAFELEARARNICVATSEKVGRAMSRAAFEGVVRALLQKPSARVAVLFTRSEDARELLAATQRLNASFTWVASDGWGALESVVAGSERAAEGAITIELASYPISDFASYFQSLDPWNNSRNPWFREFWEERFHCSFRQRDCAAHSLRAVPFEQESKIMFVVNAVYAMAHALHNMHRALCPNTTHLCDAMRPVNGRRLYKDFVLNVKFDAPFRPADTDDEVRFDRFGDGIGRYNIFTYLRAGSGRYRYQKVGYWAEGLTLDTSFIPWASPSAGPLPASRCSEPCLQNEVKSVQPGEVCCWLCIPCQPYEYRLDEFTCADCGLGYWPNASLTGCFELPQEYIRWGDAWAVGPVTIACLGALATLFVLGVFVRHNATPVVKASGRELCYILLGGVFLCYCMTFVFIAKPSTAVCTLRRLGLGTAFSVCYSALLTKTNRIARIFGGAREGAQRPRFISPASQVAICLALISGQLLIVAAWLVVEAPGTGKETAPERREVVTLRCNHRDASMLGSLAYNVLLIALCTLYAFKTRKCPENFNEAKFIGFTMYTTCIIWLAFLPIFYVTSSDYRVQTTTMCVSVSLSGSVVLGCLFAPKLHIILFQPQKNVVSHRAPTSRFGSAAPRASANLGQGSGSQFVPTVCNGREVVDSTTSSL

Broadly, the EC50 is the midpoint of the concentration-response curve. Consider `Cn1nc(-c2cccc(-c3cccc(C(=O)O)c3)c2)nc1-c1ccccc1` [Example 50, 3′-(1-Methyl-5-phenyl-1H-1,2,4-triazol-3-yl)-[1,1′-biphenyl]-3-carboxylic Acid], for which the 50% effective concentration (EC50) is 0.59 µM at rat mGlu2 receptor (setting [1]), 1.48 µM on rat mGlu2 receptor (setting [2]) and greater than 10 µM at rat mGlu3 receptor.

Consider `O=C(O)c1cc(-c2ccccc2-c2csc(-c3ccccc3)n2)ccc1F` [Example 18, 4-Fluoro-2′-(2-phenylthiazol-4-yl)biphenyl-3-carboxylic Acid], for which the EC50 at rat mGlu2 receptor (setting [1]) was greater than 10 µM; on rat mGlu2 receptor (setting [3]), greater than 30 µM; at rat mGlu3 receptor, greater than 10 µM.

Take `O=C(O)c1cc(-c2cccc(-c3csc(-c4ccccc4)c3)c2)ccc1F` [Example 45, 4-Fluoro-3′-(5-phenylthiophen-3-yl)-[1,1′-biphenyl]-3-carboxylic Acid]: the 50% effective concentration (EC50) on rat mGlu2 receptor (setting [1]), on rat mGlu2 receptor (setting [2]) and on rat mGlu3 receptor was greater than 10 µM throughout.

With `O=C(O)c1cc(-c2cccc(-c3csc(-c4cc5ccccc5o4)n3)c2)ccc1F` [Example 16, 3′-(2-(Benzofuran-2-yl)thiazol-4-yl)-4-fluorobiphenyl-3-carboxylic Acid], the 50% effective concentration (EC50) at rat mGlu2 receptor (setting [1]) was found to be 2.57 µM; on rat mGlu2 receptor (setting [2]), 1.93 µM; on rat mGlu3 receptor, 3.32 µM.

On to `O=C(O)c1cc(-c2ccc(-c3csc(-c4ccccc4)n3)cc2)ccc1F` [Example 17, 4-Fluoro-4′-(2-phenylthiazol-4-yl)biphenyl-3-carboxylic Acid], for which the concentration for a half-maximal effect (EC50) at rat mGlu2 receptor (setting [1]), at rat mGlu2 receptor (setting [3]) and at rat mGlu3 receptor was greater than 30 µM each time.

On to `O=C(O)c1cc(-c2cccc(-c3nc(-c4sccc4Cl)cc(C(F)(F)F)n3)c2)ccc1F` [Example 107, 3′-(4-(3-Chlorothiophen-2-yl)-6-(trifluoromethyl)pyrimidin-2-yl)-4-fluorobiphenyl-3-carboxylic Acid], for which the EC50 at rat mGlu2 receptor (setting [1]) was 4.53 µM; at rat mGlu3 receptor it was greater than 10 µM.

In the case of `O=C1CC(c2ccnc(Cl)c2)=Nc2ccc(-c3ccc(C(F)(F)F)cc3F)cc2N1` [Example 201, 4-(2-Chloropyridin-4-yl)-8-(2-fluoro-4-(trifluoromethyl)phenyl)-1,3-dihydro-2H-benzo[b][1,4]diazepin-2-one], the EC50 is greater than 10 µM on rat mGlu2 receptor (setting [1]), 0.52 µM at rat mGlu2 receptor (setting [3]) and 1.61 µM at rat mGlu3 receptor.

With `O=C(O)c1ccc(-c2cccc(-c3nc(-c4ccc(C(F)(F)F)nc4)cc(C(F)(F)F)n3)c2)cc1Cl` [Example 74, 3-Chloro-3′-(4-(trifluoromethyl)-6-(6-(trifluoromethyl)pyridin-3-yl)pyrimidin-2-yl)biphenyl-4-carboxylic Acid], the figures for the EC50 on rat mGlu2 receptor (setting [1]), on rat mGlu2 receptor (setting [3]) and at rat mGlu3 receptor were 6.76 µM, greater than 10 µM and 6.52 µM, respectively.

Regarding `O=C(O)c1cccc(-c2cccc(-c3cc(-c4ccccc4)[nH]n3)c2)c1` [Example 68, 3′-(5-Phenyl-1H-pyrazol-3-yl)-[1,1′-biphenyl]-3-carboxylic Acid], the EC50 is greater than 10 µM at rat mGlu2 receptor (setting [1]), greater than 30 µM on rat mGlu2 receptor (setting [3]) and greater than 10 µM at rat mGlu3 receptor.

For `O=C(O)c1cc(-c2cccc(-c3nc(-c4ccc(Cl)cc4F)cc(C(F)(F)F)n3)c2)ccc1F` [Example 110, 3′-(4-(4-Chloro-2-fluorophenyl)-6-(trifluoromethyl)pyrimidin-2-yl)-4-fluorobiphenyl-3-carboxylic Acid], the EC50 stood at 4.08 µM at rat mGlu2 receptor (setting [1]), 0.65 µM on rat mGlu2 receptor (setting [3]) and 5.34 µM at rat mGlu3 receptor.

For the compound `O=C(O)c1ccccc1-c1cccc(-c2csc(-c3ccccc3)n2)c1` [Example 25, 3′-(2-Phenylthiazol-4-yl)biphenyl-2-carboxylic Acid], the EC50 at rat mGlu2 receptor (setting [1]), at rat mGlu2 receptor (setting [3]) and at rat mGlu3 receptor was greater than 10 µM throughout.

On to `O=C(O)c1cc(-c2cccc(-c3nc(-c4ccc(C(F)(F)F)cc4)cc(C(F)(F)F)n3)c2)ccc1F` [Example 108, 4-Fluoro-3′-(4-(trifluoromethyl)-6-(4-(trifluoromethyl)phenyl)pyrimidin-2-yl)biphenyl-3-carboxylic Acid], for which the results for the EC50 at rat mGlu2 receptor (setting [1]) and on rat mGlu3 receptor were 1.5 µM and 1.49 µM, respectively.

On to `FC(F)(F)c1ccc(-c2cc(C(F)(F)F)nc(-c3cccc(-c4cccc(-c5nn[nH]n5)c4)c3)n2)cn1` [Example 123, 2-(3′-(2H-Tetrazol-5-yl)biphenyl-3-yl)-4-(trifluoromethyl)-6-(6-(trifluoromethyl)pyridin-3-yl)pyrimidine], for which the concentration giving a half-maximal response (EC50) at rat mGlu2 receptor (setting [1]) turned out to be 0.75 µM; on rat mGlu2 receptor (setting [3]) it was 0.43 µM; on rat mGlu3 receptor it was 2.39 µM.

As for `O=C1CC(c2ccnc(Cl)c2)=Nc2ccc(C(F)(F)F)cc2N1` [Example 189, 4-(2-Chloropyridin-4-yl)-8-(trifluoromethyl)-1,3-dihydro-2H-benzo[b][1,4]diazepin-2-one], the figures for the EC50 at rat mGlu2 receptor (setting [1]), at rat mGlu2 receptor (setting [3]) and at rat mGlu3 receptor were 0.29 µM, 0.08 µM and 0.28 µM, respectively.

For the compound `O=C(O)c1cccc(-c2cccc(-c3n[nH]c(-c4ccccc4)n3)c2)c1` [Example 65, 3′-(5-Phenyl-1H-1,2,4-triazol-3-yl)-[1,1′-biphenyl]-3-carboxylic Acid], the EC50 is greater than 10 µM on rat mGlu2 receptor (setting [1]), greater than 30 µM at rat mGlu2 receptor (setting [2]) and greater than 30 µM at rat mGlu3 receptor.

As for `O=C(O)c1cc(-c2cccc(-c3csc(-c4ccccc4)n3)c2)cc([N+](=O)[O-])c1` [Example 13, 5-Nitro-3′-(2-phenylthiazol-4-yl)biphenyl-3-carboxylic Acid], the 50% effective concentration (EC50) at rat mGlu2 receptor (setting [1]), on rat mGlu2 receptor (setting [2]) and at rat mGlu3 receptor was greater than 10 µM in each case.

In the case of `COc1ccc(-c2cccc(-c3csc(-c4ccccc4)n3)c2)cc1C(=O)O` [Example 12, 4-Methoxy-3′-(2-phenylthiazol-4-yl)-[1,1′-biphenyl]-3-carboxylic Acid], the EC50 was 1.73 µM on rat mGlu2 receptor (setting [1]), 2.14 µM at rat mGlu2 receptor (setting [2]) and 1.77 µM at rat mGlu3 receptor.

For `Cc1ccc(-c2cc(C(F)(F)F)nc(-c3cccc(-c4ccc(F)c(C(=O)O)c4)c3)n2)s1` [Example 112, 4-Fluoro-3′-(4-(5-methylthiophen-2-yl)-6-(trifluoromethyl)pyrimidin-2-yl)biphenyl-3-carboxylic Acid], the EC50 at rat mGlu2 receptor (setting [1]) stood at 3.19 µM; at rat mGlu2 receptor (setting [3]), 0.75 µM; at rat mGlu3 receptor it was 3.14 µM.

Turning to `COc1ccc(-c2nc(-c3cccc(-c4cccc(C(=O)O)c4)c3)cs2)cc1OC` [Example 29, 3-{3-[2-(3,4-Dimethoxyphenyl)-1,3-thiazol-4-yl]phenyl}benzoic acid], the EC50 on rat mGlu2 receptor (setting [1]) is 2.58 µM; on rat mGlu2 receptor (setting [2]), 1.1 µM; at rat mGlu3 receptor, 4.02 µM.

For `O=C(O)c1cc(-c2cccc(-c3nc(-c4cc5ccccc5s4)cc(C(F)(F)F)n3)c2)ccc1F` [Example 102, 3′-(4-(Benzo[b]thiophen-2-yl)-6-(trifluoromethyl)pyrimidin-2-yl)-4-fluorobiphenyl-3-carboxylic Acid], the EC50 at rat mGlu2 receptor (setting [1]) worked out at 3.33 µM; on rat mGlu2 receptor (setting [3]) it was 0.88 µM; on rat mGlu3 receptor it was 3.12 µM.

For the compound `O=C(O)c1cccc(-c2cccc(-c3csc(-c4cccc5ccccc45)n3)c2)c1` [Example 30], the EC50 on rat mGlu2 receptor (setting [1]) is greater than 10 µM; on rat mGlu2 receptor (setting [2]) it was greater than 10 µM; at rat mGlu3 receptor, greater than 30 µM.

Turning to `O=C(O)c1cc(-c2cccc(-c3cnc(-c4ccccc4)s3)c2)ccc1F` [Example 3, 4-Fluoro-3′-(2-phenylthiazol-5-yl)biphenyl-3-carboxylic Acid], the EC50 at rat mGlu2 receptor (setting [1]) is greater than 30 µM; at rat mGlu2 receptor (setting [3]), greater than 10 µM; on rat mGlu3 receptor, greater than 10 µM.
